These results are taken from US7977322B2 (Vertex Pharmaceuticals Incorporated, priority 2004, dated 2011).

Bounds are passed on as bounds.

The assay has as its target T1, ΔF508-CFTR (Homo sapiens, UniProt P13569, DEL508-508).
T1 construct: expressed in transfected cells
The experiment in a line: Membrane potential optical (FRET/VIPR) assay, identification of correction compounds. The assay is classed as cell-based. The settings on record: Table 3, assay not given; for Emax: read-out: % Activity / % Efficacy (relative efficacy). An excerpt:
I) Membrane Potential Optical Methods for Assaying ΔF508-CFTR Modulation Properties of Compounds
These voltage sensitive assays are based on the change in fluorescence resonant energy transfer (FRET) between the membrane-soluble, voltage-sensitive dye, DiSBAC2(3), and a fluorescent phospholipid, CC2-DMPE, which is attached to the outer leaflet of the plasma membrane and acts as a FRET donor. Changes in membrane potential (Vm) cause the negatively charged DiSBAC2(3) to redistribute across the plasma membrane and the amount of energy transfer from CC2-DMPE changes accordingly. The changes in fluorescence emission were monitored using VIPR™ II, which is an integrated liquid handler and fluorescent detector designed to conduct cell-based screens in 96- or 384-well microtiter plates.
Identification of Correction Compounds
To identify small molecules that correct the trafficking defect associated with ΔF508-CFTR; a single-addition HTS assay format was developed. The cells were incubated in serum-free medium for 16 hrs at 37° C. in the presence or absence (negative control) of test compound. As a positive control, cells plated in 384-well plates were incubated for 16 hrs at 27° C. to “temperature-correct” ΔF508-CFTR. The cells were subsequently rinsed 3× with Krebs Ringers solution and loaded with the voltage-sensitive dyes. To activate ΔF508-CFTR, 10 μM forskolin and the CFTR potentiator, genistein (20 μM), were added along with Cl^− free medium to each well. The addition of Cl^− free medium promoted Cl^− efflux in response to ΔF508-CFTR activation and the resulting membrane depolarization was optically monitored using the FRET-based voltage-sensor dyes.
• Bath Solution #1: (in mM) NaCl 160, KCl 4.5, CaCl2 2, MgCl2 1, HEPES 10, pH 7.4 with NaOH. • Chloride-free bath solution: Chloride salts in Bath Solution #1 are substituted with gluconate salts. • CC2-DMPE: Prepared as a 10 mM stock solution in DMSO and stored at −20° C. • DiSBAC2(3): Prepared as a 10 mM stock in DMSO and stored at −20° C.
NIH3T3 mouse fibroblasts stably expressing ΔF508-CFTR are used for optical measurements of membrane potential. The cells are maintained at 37° C. in 5% CO2 and 90% humidity in Dulbecco's modified Eagle's medium supplemented with 2 mM glutamine, 10% fetal bovine serum, 1×NEAA, β-ME, 1×pen/strep, and 25 mM HEPES in 175 cm^2 culture flasks. For all optical assays, the cells were seeded at 30,000/well in 384-well matrigel-coated plates and cultured for 2 hrs at 37° C. before culturing at 27° C. for 24 hrs. for the potentiator assay.

T1 sequence (P13569 with tags, fused parts or gaps DEL508-508): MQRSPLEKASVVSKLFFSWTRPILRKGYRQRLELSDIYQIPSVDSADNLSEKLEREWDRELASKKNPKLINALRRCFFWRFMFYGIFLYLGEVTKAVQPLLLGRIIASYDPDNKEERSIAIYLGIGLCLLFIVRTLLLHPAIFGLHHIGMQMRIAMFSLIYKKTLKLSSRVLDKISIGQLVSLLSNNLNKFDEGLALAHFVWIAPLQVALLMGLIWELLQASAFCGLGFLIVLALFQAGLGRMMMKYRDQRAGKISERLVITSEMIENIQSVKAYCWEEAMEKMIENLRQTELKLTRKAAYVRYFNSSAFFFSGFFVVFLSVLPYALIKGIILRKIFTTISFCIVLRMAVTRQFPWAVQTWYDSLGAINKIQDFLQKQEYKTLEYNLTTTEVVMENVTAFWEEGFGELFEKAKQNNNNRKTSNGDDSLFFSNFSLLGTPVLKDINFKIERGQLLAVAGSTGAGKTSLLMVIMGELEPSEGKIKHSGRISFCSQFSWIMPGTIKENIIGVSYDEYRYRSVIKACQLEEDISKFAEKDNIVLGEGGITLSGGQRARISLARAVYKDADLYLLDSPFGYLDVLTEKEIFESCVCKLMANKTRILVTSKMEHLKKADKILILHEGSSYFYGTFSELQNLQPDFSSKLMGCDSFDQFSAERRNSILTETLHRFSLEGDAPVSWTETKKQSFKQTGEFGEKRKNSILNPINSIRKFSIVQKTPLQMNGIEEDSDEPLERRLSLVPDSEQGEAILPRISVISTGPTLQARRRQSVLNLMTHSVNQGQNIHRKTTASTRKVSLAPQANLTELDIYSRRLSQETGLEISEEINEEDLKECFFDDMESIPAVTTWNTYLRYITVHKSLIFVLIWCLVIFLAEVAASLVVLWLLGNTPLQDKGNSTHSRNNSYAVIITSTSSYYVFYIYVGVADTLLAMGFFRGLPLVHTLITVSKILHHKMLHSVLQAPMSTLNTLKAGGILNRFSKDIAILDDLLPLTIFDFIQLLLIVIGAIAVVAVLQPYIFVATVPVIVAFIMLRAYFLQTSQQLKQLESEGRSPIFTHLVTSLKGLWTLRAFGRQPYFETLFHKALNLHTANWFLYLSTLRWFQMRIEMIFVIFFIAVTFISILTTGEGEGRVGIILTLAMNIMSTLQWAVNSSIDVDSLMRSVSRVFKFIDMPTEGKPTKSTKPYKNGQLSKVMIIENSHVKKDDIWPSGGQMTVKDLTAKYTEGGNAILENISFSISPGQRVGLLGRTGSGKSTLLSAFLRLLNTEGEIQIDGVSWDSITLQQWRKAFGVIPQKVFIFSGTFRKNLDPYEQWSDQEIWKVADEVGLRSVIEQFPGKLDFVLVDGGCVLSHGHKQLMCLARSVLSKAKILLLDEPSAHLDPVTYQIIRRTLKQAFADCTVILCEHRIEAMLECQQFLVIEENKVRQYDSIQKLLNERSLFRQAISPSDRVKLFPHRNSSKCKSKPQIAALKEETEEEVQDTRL

A word on the EC50: it is the concentration needed to bring the measured effect to its halfway point. Turning to `COc1ccccc1Cc1cnc(NC(=O)C2(c3ccc(SC)cc3)CC2)s1` [Example 173], the “% Activity / % Efficacy (relative efficacy)” value is given as “+++ (“+++” means>100%)” and the EC50 is less than 10 µM. For `O=C(Nc1ncc(Cc2ccccc2Cl)s1)C1(c2ccc(OC(F)(F)F)cc2)CC1` [Example 174], in that order: “+++ (“+++” means>100%)” and less than 10 µM.

As for `CSc1ccc(C2(C(=O)Nc3ncc(Cc4ccccc4Cl)s3)CC2)cc1` [Example 175], the “% Activity / % Efficacy (relative efficacy)” value is “+++ (“+++” means>100%)” and the EC50 is less than 10 µM. Consider `COc1ccc(C2(C(=O)Nc3ncc(Cc4cccnc4OC)s3)CC2)cc1` [Example 176], for which the “% Activity / % Efficacy (relative efficacy)” value was “+++ (“+++” means>100%)” and the EC50 is less than 10 µM. For `COc1ccc(C2(C(=O)Nc3ncc(Cc4cc(F)ccc4OC)s3)CC2)cc1` [Example 179], in that order: “+++ (“+++” means>100%)” and less than 10 µM. For `COc1ccc(Cc2cnc(NC(=O)C3(c4ccc(OC)cc4)CC3)s2)cc1` [Example 180], in that order: “+++ (“+++” means>100%)” and less than 10 µM. For `COc1cccc(Cc2cnc(NC(=O)C3(c4ccc5c(c4)OCO5)CC3)s2)c1` [Example 181], the “% Activity / % Efficacy (relative efficacy)” value is reported as “+++ (“+++” means>100%)” and the EC50 is less than 10 µM. For `COc1ccc(F)cc1Cc1cnc(NC(=O)C2(c3ccc4c(c3)OCO4)CC2)s1` [Example 182], in that order: “+++ (“+++” means>100%)” and less than 10 µM. Take `COc1ccc(Cc2cnc(NC(=O)C3(c4ccc5c(c4)OCO5)CC3)s2)cc1` [Example 183]: the “% Activity / % Efficacy (relative efficacy)” value was “+++ (“+++” means>100%)” and the EC50 was less than 10 µM.

For `CCCc1nc(NC(=O)C2(c3ccc(OC)cc3)CC2)sc1C(=O)OCC` [Example 184], the “% Activity / % Efficacy (relative efficacy)” value was “+++ (“+++” means>100%)” and the EC50 is less than 10 µM.

As to `CN(C)CCNC(c1cnc(NC(=O)C2(c3ccc4c(c3)OCO4)CC2)s1)c1ccccc1Cl` (stereo not drawn) [Example 187], the “% Activity / % Efficacy (relative efficacy)” value is on record as “+++ (“+++” means>100%)” and the EC50 is less than 10 µM.

For the compound `O=C(Nc1ncc(C(NCCN2CCOCC2)c2ccccc2Cl)s1)C1(c2ccc3c(c2)OCO3)CC1` (stereo not drawn) [Example 188], the “% Activity / % Efficacy (relative efficacy)” value is “++ (“++” means between 25% to 100%)” and the EC50 was less than 10 µM. For `O=C1CCCc2nc(NC(=O)C3(c4ccc5c(c4)OCO5)CC3)sc21` [Example 190], in that order: “+ (“+” means<25%)” and 10 to 25 µM. The like results for `CCCc1nc(NC(=O)C2(c3ccc4c(c3)OCO4)CC2)sc1C(=O)O` [Example 191] were, in that order, “++ (“++” means between 25% to 100%)” and less than 10 µM. The like results for `CCCc1nc(NC(=O)C2(c3ccc4c(c3)OCO4)CC2)sc1C(=O)NCC` [Example 192] were, in that order, “+++ (“+++” means>100%)” and less than 10 µM. Take `COc1ccc(C2(C(=O)Nc3ncc(Cc4c(F)cccc4OC)s3)CC2)cc1` [Example 193]: the “% Activity / % Efficacy (relative efficacy)” value is reported as “+++ (“+++” means>100%)” and the EC50 was less than 10 µM. For `COc1ccc(C2(C(=O)Nc3ncc(CCc4ccccc4OC)s3)CC2)cc1` [Example 194], in that order: “++ (“++” means between 25% to 100%)” and less than 10 µM. The like results for `CCOC(=O)c1nc(NC(=O)C2(c3ccc(OC)cc3)CC2)sc1Cc1ccccc1OC` [Example 195] were, in that order, “+++ (“+++” means>100%)” and less than 10 µM. In the case of `COc1cccc(F)c1Cc1cnc(NC(=O)C2(c3ccc4c(c3)OCO4)CC2)s1` [Example 196], the “% Activity / % Efficacy (relative efficacy)” value is on record as “+++ (“+++” means>100%)” and the EC50 was less than 10 µM. On to `COc1ccccc1CCc1cnc(NC(=O)C2(c3ccc4c(c3)OCO4)CC2)s1` [Example 197], for which the “% Activity / % Efficacy (relative efficacy)” value is recorded as “+++ (“+++” means>100%)” and the EC50 is less than 10 µM.

In the case of `COc1ccccc1Cc1cnc(NC(=O)C2(c3ccc(F)c(F)c3)CC2)s1` [Example 198], the “% Activity / % Efficacy (relative efficacy)” value is on record as “+++ (“+++” means>100%)” and the EC50 is less than 10 µM. For `O=C(Nc1ncc(Cc2ccccc2Cl)s1)C1(c2ccc(F)c(F)c2)CC1` [Example 199], in that order: “+++ (“+++” means>100%)” and less than 10 µM. For `COc1ccc(CC2(C(=O)Nc3ncc(Cc4ccccc4OC)s3)CC2)cc1` [Example 200], in that order: “+++ (“+++” means>100%)” and less than 10 µM. The like results for `COc1ccc(CC2(C(=O)Nc3ncc(Cc4ccccc4Cl)s3)CC2)cc1` [Example 201] were, in that order, “++ (“++” means between 25% to 100%)” and less than 10 µM. For the compound `CCOC(=O)c1nc(NC(=O)C2(c3ccc4c(c3)OCO4)CC2)sc1Cc1ccccc1OC` [Example 202], the “% Activity / % Efficacy (relative efficacy)” value was “+++ (“+++” means>100%)” and the EC50 was less than 10 µM. Turning to `O=C(Nc1ncc(C(c2ccccc2Cl)N2CCOCC2)s1)C1(c2ccc3c(c2)OCO3)CC1` (stereo not drawn) [Example 203], the “% Activity / % Efficacy (relative efficacy)” value is reported as “++ (“++” means between 25% to 100%)” and the EC50 is less than 10 µM. For the compound `O=C(Nc1ncc([C@@H](c2ccccc2Cl)N2CCCCC2)s1)C1(c2ccc3c(c2)OCO3)CC1` [Example 211], the EC50 is less than 10 µM and the Emax was more than 100%.

As to `C=CCN(C)C(c1cnc(NC(=O)C2(c3ccc4c(c3)OCO4)CC2)s1)c1ccccc1Cl` (stereo not drawn) [Example 218], the “% Activity / % Efficacy (relative efficacy)” value is “+++ (“+++” means>100%)” and the EC50 was less than 10 µM. Consider `O=C(Nc1ncc(C(c2ccccc2Cl)N2CCC[C@@H]2CO)s1)C1(c2ccc3c(c2)OCO3)CC1` (stereo partly drawn) [Example 229], for which the EC50 was less than 10 µM and the Emax is more than 100%.

On to `COCCN1CCN(C(c2cnc(NC(=O)C3(c4ccc5c(c4)OCO5)CC3)s2)c2ccccc2Cl)CC1` (stereo not drawn) [Example 238], for which the “% Activity / % Efficacy (relative efficacy)” value is listed as “+++ (“+++” means>100%)” and the EC50 was less than 10 µM. For `CCOC(c1cnc(NC(=O)C2(c3ccc4c(c3)OCO4)CC2)s1)c1ccccc1Cl` (stereo not drawn) [Example 240], in that order: “+++ (“+++” means>100%)” and less than 10 µM.

For the compound `O=C(Nc1ncc(C(c2ccccc2Cl)n2ccnc2)s1)C1(c2ccc3c(c2)OCO3)CC1` (stereo not drawn) [Example 241], the “% Activity / % Efficacy (relative efficacy)” value is “++ (“++” means between 25% to 100%)” and the EC50 was less than 10 µM. Consider `COc1ccc(C2(C(=O)Nc3ncc(Cc4cnccc4OC)s3)CC2)cc1` [Example 242], for which the “% Activity / % Efficacy (relative efficacy)” value was “+++ (“+++” means>100%)” and the EC50 was less than 10 µM. The like results for `COc1ccc(C2(C(=O)Nc3ncc(C4(c5ccccc5OC)CC4)s3)CC2)cc1` [Example 243] were, in that order, “+++ (“+++” means>100%)” and less than 10 µM.

For the compound `COc1ccncc1Cc1cnc(NC(=O)C2(c3ccc4c(c3)OCO4)CC2)s1` [Example 244], the “% Activity / % Efficacy (relative efficacy)” value is “+++ (“+++” means>100%)” and the EC50 was less than 10 µM. For `COc1ccccc1C1(c2cnc(NC(=O)C3(c4ccc5c(c4)OCO5)CC3)s2)CC1` [Example 245], in that order: “+++ (“+++” means>100%)” and less than 10 µM. In the case of `CC(C)[C@@H](CO)NC(c1cnc(NC(=O)C2(c3ccc4c(c3)OCO4)CC2)s1)c1ccccc1Cl` (stereo partly drawn) [Example 246], the EC50 was less than 10 µM and the Emax was more than 100%. The like results for `C=CCOC(c1cnc(NC(=O)C2(c3ccc4c(c3)OCO4)CC2)s1)c1ccccc1Cl` (stereo not drawn) [Example 251] were, in that order, less than 10 µM and more than 100%. Take `O=C(Nc1ncc(C(OCCN2CCCC2)c2ccccc2Cl)s1)C1(c2ccc3c(c2)OCO3)CC1` (stereo not drawn) [Example 255]: the EC50 was less than 10 µM. For `O=C1CC[C@@H](CO[C@H](c2cnc(NC(=O)C3(c4ccc5c(c4)OCO5)CC3)s2)c2ccccc2Cl)N1` [Example 256], the EC50 is less than 10 µM and the Emax is more than 100%.

For `O=C(Nc1ncc(C(OCC2CCOC2)c2ccccc2Cl)s1)C1(c2ccc3c(c2)OCO3)CC1` (stereo not drawn) [Example 258], the EC50 was less than 10 µM and the Emax is more than 100%.
